Source: patent US20200131176A1, “SELECTIVE INHIBITORS OF CLINICALLY IMPORTANT MUTANTS OF THE EGFR TYROSINE KINASE” (CS Pharmatech Limited, priority 2017, published 2020)
“And” between values parts separate entries of the source, which are not always exact repeats. Identical values can stand only once. Like-named read-outs stand apart in the source and are kept apart here.

Columns and labels:
[1] = molecular target: T1, Exon 19 deletion EGFR (activating single mutant) in PC-9 cells (Homo sapiens, UniProt P00533, DEL746-750); assay: Exon 19 deletion EGFR PC-9 cellular autophosphorylation assay (p-EGFR ELISA); type: cell-based; conditions: PC9, 2 h treatment, read-out: SM (PC9) IC50
T1 construct: cellular phosphorylation of endogenous p-EGFR; host or cells: PC9 (PC-9) human lung cell line
T1 sequence (P00533 with tags, fused parts or gaps DEL746-750): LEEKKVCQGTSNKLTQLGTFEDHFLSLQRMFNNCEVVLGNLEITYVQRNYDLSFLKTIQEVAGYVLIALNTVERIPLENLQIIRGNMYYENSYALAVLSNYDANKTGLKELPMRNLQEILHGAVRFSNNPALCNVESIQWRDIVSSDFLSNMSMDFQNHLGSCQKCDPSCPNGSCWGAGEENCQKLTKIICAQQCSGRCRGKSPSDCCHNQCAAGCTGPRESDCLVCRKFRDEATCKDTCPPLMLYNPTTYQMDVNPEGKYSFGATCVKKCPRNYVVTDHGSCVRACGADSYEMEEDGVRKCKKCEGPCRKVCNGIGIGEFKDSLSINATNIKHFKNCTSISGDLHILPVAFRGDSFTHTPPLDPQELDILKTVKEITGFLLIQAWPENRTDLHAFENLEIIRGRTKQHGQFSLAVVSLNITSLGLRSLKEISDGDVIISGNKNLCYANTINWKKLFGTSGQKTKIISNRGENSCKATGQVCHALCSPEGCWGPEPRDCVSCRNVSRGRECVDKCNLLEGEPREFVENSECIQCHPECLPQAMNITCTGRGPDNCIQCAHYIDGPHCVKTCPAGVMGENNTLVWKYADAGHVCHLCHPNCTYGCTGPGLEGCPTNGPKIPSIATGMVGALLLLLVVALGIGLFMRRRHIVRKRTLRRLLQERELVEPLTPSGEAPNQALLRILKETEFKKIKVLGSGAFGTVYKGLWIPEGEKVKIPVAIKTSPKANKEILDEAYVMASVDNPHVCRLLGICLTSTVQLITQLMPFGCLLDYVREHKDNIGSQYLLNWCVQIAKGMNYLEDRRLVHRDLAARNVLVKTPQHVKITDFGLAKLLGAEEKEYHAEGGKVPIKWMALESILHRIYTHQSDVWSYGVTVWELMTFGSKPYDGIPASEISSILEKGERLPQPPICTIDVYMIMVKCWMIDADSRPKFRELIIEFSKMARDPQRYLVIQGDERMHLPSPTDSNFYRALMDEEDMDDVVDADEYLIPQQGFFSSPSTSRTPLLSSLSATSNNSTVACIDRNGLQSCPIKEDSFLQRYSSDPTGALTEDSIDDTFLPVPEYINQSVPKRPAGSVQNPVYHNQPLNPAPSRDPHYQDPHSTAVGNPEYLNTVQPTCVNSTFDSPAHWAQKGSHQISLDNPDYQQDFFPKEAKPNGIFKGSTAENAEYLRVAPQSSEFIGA
Description: The human lung cell line PC9 (Exon 19 deletion EGFR) were obtained from the American type Culture Collection. […] Cells were grown in a humidified incubator at 37° C. with 5% CO2, Assays to measure cellular phosphorylation of endogenous p-EGFR in cell Iysates were carried out according to the protocol described in the R&D Systems DuoSet IC Human Phospho-EGF R ELISA (R&D Systems catalogue number # DYCI095). 40 μL of cells were seeded (10000 cells/well) in growth medium in Coming black, clear-bottomed 384-well plates and incubated at 37° C. with 5% CO2 overnight. […] Plates were incubated for a further 2 h, then following aspiration of medium, 40 μL× lysis buffer is added to each well. Greiner black high bind 384 well plates were coated with capture antibody and then blocked with 3% BSA. Following removal of block, 15 μL of lysate are transferred to the Greiner black high bind 384 well plates and incubated for 2 hours. Following aspiration and washing of the plates with PBS, 20 μL of detection antibody were added and incubated for 2 hours. […] The data obtained with each compound are exported into a suitable software package (such as Origin) to perform curve fitting analysis.

INSR = molecular target: T2, INSR (Homo sapiens, UniProt P06213); assay: INSR inhibition assay (Caliper mobility shift); type: biochemical; conditions: enzyme assay
T2 construct: purchased CARNA BIOSCIENCE 08-142
T2 sequence (P06213 1005-1382 limits assumed): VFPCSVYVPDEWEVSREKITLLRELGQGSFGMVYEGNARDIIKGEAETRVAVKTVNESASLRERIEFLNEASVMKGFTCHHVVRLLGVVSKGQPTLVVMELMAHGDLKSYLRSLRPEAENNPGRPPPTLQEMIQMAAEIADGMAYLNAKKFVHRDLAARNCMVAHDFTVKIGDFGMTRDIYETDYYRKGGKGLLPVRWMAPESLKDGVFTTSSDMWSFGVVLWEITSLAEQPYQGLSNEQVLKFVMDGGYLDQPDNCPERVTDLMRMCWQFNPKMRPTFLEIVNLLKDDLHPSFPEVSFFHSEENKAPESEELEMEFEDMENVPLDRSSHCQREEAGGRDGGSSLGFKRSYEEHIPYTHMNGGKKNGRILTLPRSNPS
Description: Test compound was dissolved in DMSO at 30 mM. […] 20 nL of these compounds DMSO dilutes were dispensed into a new 384-well assay plate by Echo 550. […] 15 μL of kinase assay buffer containing INSR protein and substrate was transferred to assay plate and incubate at RT for 30 minutes. Kinase assay buffer supplemented with substrate peptides was employed as low control to monitor the background. 40 μM ATP was prepared in kinase assay buffer containing and 5 μL of ATP solution was added to each well to start the reaction. The assay plate was incubated at 25° C. for 180 minutes and the reaction was stopped by adding 40 μL of 0.5 M EDTA.
The result was analyzed in the same manner as IGF-IR.

H1975 cells = assay: H1975 inhibition assay (cell proliferation, CellTiter-Glo, 72 h); type: cell-based, human; conditions: cellular proliferation, double mutant EGFR
Description: H1975 Inhibition Assay (Cell Proliferation).
(§1) Test compounds were dissolved in DMSO at 30 mM.
(§2) The final concentration was 1,000 cells/well. Add medium only as low control.
(§3) After 72 hours incubation, remove the plates from incubator and equilibrate at room temperature for 15 minutes. Incubate the CellTiter Glo reagents (Promega, G9243) at 37° C. before the experiment. The buffer was equilibrated to room temperature and used to dissolve the substrate. To determine the cell viability, add 40 μL of CellTiter-Glo reagent into each well to be detected (at 1:1 to culture medium). Then the place the plates at room temperature for 30 min followed by read on EnSpire (PerkinElmer).
(§4) For estimation of IC50, the luminescence readout are transformed to % Inhibition by applying the following equation:

PC-9 cells = assay: PC-9 growth inhibition assay (cell proliferation, CellTiter-Glo, 72 h); type: cell-based, human; conditions: cellular proliferation, PC9 cells, single mutant EGFR
Description: (§5) Then incubate the flasks at 37° C. until the cells detach.
as §1, §2, §3, §4

A431 cells = assay: A431 inhibition assay (cell proliferation, CellTiter-Glo, 72 h); type: cell-based, human
Description: as §5, §1, §2, §3, §4

IGF-1R = molecular target: T3, IGF-1R (Homo sapiens, UniProt P08069); assay: IGF-1R inhibition assay (Caliper mobility shift); type: biochemical; conditions: enzyme assay
T3 construct: purchased CARNA BIOSCIENCE 08-141
T3 sequence (P08069 959-1367 limits assumed): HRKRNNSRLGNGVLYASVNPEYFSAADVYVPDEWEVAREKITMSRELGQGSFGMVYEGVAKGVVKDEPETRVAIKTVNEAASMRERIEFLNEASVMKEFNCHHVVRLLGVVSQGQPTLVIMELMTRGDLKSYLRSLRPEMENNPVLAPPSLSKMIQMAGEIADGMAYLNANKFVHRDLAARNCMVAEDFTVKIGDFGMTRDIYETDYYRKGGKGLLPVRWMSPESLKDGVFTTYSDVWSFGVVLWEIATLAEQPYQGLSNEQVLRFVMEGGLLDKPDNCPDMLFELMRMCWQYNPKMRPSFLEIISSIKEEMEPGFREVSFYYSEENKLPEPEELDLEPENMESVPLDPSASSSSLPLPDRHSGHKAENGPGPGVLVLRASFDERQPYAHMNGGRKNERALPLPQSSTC
Description: Test compound was dissolved in DMSO at 30 mM. […] 20 nL of these compounds DMSO dilutes were dispensed into a new 384-well assay plate by Echo 550. […] 15 μL of kinase assay buffer containing IGF-1R protein and substrate was transferred to assay plate and incubate at RT for 30 minutes. Kinase assay buffer supplemented with substrate peptides was employed as low control to monitor the background. 40 μM ATP was prepared in kinase assay buffer containing and 5 μL of ATP solution was added to each well to start the reaction. The assay plate was incubated at 25° C. for 180 minutes and the reaction was stopped by adding 40 μL of 0.5 M EDTA.
Phosphorylated fluorescent-tagged peptides were differentiated from non-phosphorylated peptides by separating using Caliper EZ Reader II and the detection was directly converted to conversion ratio.

[2] = test system: H1975 NSCLC cells xenograft (EGFR L858R/T790M double mutant); assay: EGFR L858R/T790M double-mutant H1975 xenograft model; type: in vivo, nu/nu mice; conditions: day 10 after dosing; for Tumor Size: average ± SEM, n = 9
Description: Appropriately transformed cells, either from ATCC cell lines, known to carry the oncogene of interest, or from deliberate transfections, are suspended in appropriate media, and 5×10^6 or 1×10^7 cells are injected into the flank of nu/nu mice. Alternatively trochar placement of fragments of in vivo passaged tumors, usually about 1 mm^3 can be used to initiate the tumors. When tumors have reached an appropriate size for the experiment, usually in the 100-300 mg range, animals are randomized into matched groups of 6-10 mice, and tumor size and given vehicle or test article by perioral gavage once or twice daily. Tumor volumes are determined using calipers. The percentage increase in the volume of a xenograft tumor on day n versus day 0 (the day when dosing of the test compound began) is calculated as (tumor volume on day n−tumor volume on day 0/tumor volume on day 0)×100. The mean percentage of tumor growth inhibition in each drug-treated group relative to the vehicle-treated group is calculated as (1−mean percent increase of tumor volume in the drug-treated group/mean percent increase of the tumor volume in the vehicle-treated group)×100. Statistical significance is evaluated using a one-tailed t test.
Tumor size was measured on day 10 after dosing.

[3] = molecular target: hERG channel (HEK 293 cell line stably expressing hERG channel) (Homo sapiens, UniProt Q12809); assay: cell-based
Sequence of hERG channel (HEK 293 cell line stably expressing hERG channel) (Q12809 whole entry): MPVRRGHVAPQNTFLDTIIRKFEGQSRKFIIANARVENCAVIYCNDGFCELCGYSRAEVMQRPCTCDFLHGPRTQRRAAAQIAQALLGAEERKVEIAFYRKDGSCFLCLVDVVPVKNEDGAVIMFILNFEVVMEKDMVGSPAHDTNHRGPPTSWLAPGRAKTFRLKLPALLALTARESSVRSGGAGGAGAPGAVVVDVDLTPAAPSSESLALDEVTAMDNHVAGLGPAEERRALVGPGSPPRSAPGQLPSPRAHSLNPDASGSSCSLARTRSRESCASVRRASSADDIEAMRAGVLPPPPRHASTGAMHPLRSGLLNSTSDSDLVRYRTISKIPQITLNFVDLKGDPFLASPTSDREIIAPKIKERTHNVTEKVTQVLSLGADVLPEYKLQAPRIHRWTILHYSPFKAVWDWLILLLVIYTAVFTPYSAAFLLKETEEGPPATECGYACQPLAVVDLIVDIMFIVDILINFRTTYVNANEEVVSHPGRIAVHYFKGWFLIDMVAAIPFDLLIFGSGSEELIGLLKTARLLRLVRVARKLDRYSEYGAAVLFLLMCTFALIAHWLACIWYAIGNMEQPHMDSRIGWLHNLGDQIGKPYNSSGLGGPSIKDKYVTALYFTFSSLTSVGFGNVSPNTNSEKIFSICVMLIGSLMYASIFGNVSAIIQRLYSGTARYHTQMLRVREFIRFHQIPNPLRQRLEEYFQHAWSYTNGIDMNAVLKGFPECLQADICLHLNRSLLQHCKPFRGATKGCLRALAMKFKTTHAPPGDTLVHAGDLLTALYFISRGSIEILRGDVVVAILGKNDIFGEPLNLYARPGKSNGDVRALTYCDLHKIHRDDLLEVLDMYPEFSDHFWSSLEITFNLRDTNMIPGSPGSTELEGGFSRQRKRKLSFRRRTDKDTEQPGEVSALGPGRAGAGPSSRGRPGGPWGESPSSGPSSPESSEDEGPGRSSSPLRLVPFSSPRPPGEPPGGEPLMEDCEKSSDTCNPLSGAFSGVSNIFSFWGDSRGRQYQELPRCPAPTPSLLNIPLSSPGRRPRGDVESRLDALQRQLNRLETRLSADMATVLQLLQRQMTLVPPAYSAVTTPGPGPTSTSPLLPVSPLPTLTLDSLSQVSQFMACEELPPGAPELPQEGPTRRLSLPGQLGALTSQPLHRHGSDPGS

[4] = molecular target: Wild type EGFR in A431 cells (Homo sapiens, UniProt P00533); conditions: WT (A431) IC50 nM, cellular EGFR autophosphorylation, A431, 2 h treatment then EGF stimulation 10 min
[5] = molecular target: T4, L858R/T790M double mutant EGFR in H1975 cells (Homo sapiens, UniProt P00533, L858R/T790M); assay: L858R/T790M double mutant H1975 autophosphorylation inhibition assay (ELISA); type: cell-based; conditions: cellular EGFR autophosphorylation, H1975, 2 h treatment; read-out: DM (H1975) IC50
T4 construct: endogenous in cells; host or cells: H1975 cells
T4 sequence (P00533 25-1210 T790M/L858R): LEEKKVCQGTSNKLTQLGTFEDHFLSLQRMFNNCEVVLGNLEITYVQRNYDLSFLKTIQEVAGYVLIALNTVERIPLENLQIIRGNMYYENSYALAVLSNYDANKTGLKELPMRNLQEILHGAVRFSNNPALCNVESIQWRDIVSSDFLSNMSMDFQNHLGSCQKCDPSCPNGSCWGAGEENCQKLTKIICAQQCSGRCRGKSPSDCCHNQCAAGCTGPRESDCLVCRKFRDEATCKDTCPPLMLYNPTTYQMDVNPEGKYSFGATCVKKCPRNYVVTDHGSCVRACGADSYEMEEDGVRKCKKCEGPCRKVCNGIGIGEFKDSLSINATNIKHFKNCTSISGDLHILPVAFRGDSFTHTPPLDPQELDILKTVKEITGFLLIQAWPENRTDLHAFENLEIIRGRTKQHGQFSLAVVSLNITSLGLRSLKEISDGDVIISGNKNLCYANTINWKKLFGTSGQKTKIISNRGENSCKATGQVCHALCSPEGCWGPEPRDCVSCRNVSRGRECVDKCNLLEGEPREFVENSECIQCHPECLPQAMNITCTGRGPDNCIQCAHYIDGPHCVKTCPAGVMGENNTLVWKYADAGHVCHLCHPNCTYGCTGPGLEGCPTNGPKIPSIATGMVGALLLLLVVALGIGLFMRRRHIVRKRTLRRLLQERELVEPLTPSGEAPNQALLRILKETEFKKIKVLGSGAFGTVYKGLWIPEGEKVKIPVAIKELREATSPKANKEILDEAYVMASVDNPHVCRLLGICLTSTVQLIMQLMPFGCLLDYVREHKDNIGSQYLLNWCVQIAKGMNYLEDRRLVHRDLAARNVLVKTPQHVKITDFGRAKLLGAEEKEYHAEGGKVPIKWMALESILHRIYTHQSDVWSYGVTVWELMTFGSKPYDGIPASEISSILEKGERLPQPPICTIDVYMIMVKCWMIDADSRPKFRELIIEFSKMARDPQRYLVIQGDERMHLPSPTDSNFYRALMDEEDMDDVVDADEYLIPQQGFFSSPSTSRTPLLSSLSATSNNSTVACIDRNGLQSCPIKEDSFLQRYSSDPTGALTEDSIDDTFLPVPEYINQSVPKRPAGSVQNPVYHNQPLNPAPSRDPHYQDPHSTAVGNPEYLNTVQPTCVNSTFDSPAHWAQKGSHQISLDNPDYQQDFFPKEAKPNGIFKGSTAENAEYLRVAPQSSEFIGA

Mouse in vivo PK study [6] = conditions: male CD1 mice
Mouse in vivo PK study [7] = conditions: male CD1 mice; remark: listed apart in the source
Description: To determine the drug concentration in plasma of the compounds of the present disclosure following intravenous and oral administration in male CD 1 Mice, pharmacokinetic profile and PK parameters were obtained.
Test animals: healthy male CD1 mice (body weight 20-30 g, 18 mice, free access to food and water), provided by Sibeifu laboratory. […]
Samples collection: the healthy animals were used, weighed the bodyweight and marked at tail and cage card prior to dosing. Blood samples (0.03 mL per time point) were collected from dorsal metatarsal vein at 0.083, 0.25, 0.5, 1, 2, 4, 8, 24 h post dose for IV group and at 0.25, 0.5, 1, 2, 4, 8, 24 h post dose for PO group, the terminal time point was collected from heart (˜0.3 mL). The blood samples were put into the tube with heparin-Na coated and then put on the cold box, centrifuged at 4° C. 4000 g, 5 minutes immediately after collecting all samples per time point to get plasma. The plasma samples were stored in a freezer at −75±15° C. prior to analysis.
The drug concentration was determined by LC/MS/MS method, and the PK parameters were observed as follows.

[8] = NCI-H1975 cells, read-out: NCI-H1975 IC50 (nM) DM
[9] = cellular proliferation, wild type EGFR, read-out: A431 IC50 (nM) WT
[10] = Homo sapiens, NCI-H1975, 72 h, read-out: NCI-H1975 IC50 (nM) DM
[11] = Homo sapiens, PC-9, 72 h, read-out: PC9 IC50 (nM) SM
[12] = Homo sapiens, A-431, 72 h, cellular proliferation, wild type EGFR, read-out: A431 IC50 (nM) WT
[13] = mouse, plasma, 10 mg/kg PO, read-out: T1/2 (PO) (converted)

C=CC(=O)Nc1cc(Nc2nccc(-c3c[nH]c4ccccc34)n2)c(OC)cc1N(C)CCN(C)C [AZD5104, reference compound]
IC50 [1]: 4.04 nM and 4.64 nM and 5.59 nM and 5.83 nM
IC50 (INSR): 94.8 nM
IC50 (H1975 cells; NCI-H1975 cells, listed as AZD-5104, read-out: NCI-H1975 IC50 (nM) DM): 3.9 nM
IC50 (H1975 cells; [8]): 2.95 nM and 3.06 nM and 4.05 nM
IC50 (PC-9 cells; listed as AZD-5104, read-out: PC9 IC50 (nM) SM): 1.57 nM
IC50 (PC-9 cells; read-out: PC9 IC50 (nM) SM): 1.34 nM and 2.27 nM and 1.92 nM
IC50 (A431 cells; [9]): 95.2 nM
IC50 (IGF-1R): 102 nM

C=CC(=O)Nc1cc(Nc2nccc(-c3cn(C)c4ccccc34)n2)c(OC)cc1N(C)CCN(C)C [AZD9291, reference compound]
TGI (tumor growth inhibition) ([2]; 5 mg/kg): 107.63%
Tumor Size ([2]; 5 mg/kg): 123 ± 39 mm^3
IC50 (H1975 cells; [10]): 7.16 nM
IC50 (PC-9 cells; read-out: PC9 IC50 (nM) SM): 7.43 nM
IC50 (IGF-1R): 455 nM

C=CC(=O)Nc1cc(Nc2nccc(-c3cc(C#N)c4c(c3)c(C)cn4C)n2)c(OC)cc1N(C)CCN(C)C [Example 2, N-(5-((4-(7-Cyano-1,3-dimethyl-1H-indol-5-yl)pyrimidin-2-yl)amino)-2-((2-(dimethylamino)ethyl)(methyl)amino)-4-methoxyphenyl)acrylamide]
IC50 [1]: 7.06 nM and 5.4 nM
IC50 (INSR): 1820 nM
TGI (tumor growth inhibition) ([2]; 5 mg/kg): 96.93%
TRTV/CRTV (relative tumor volume) ([2]; 5 mg/kg): 19.70%
Tumor Size ([2]; 5 mg/kg): 230 ± 93 mm^3
TGI (tumor growth inhibition) ([2]; 15 mg/kg): 115.76%
TRTV/CRTV (relative tumor volume) ([2]; 15 mg/kg): 3.93%
Tumor Size ([2]; 15 mg/kg): 46 ± 32 mm^3
TGI (tumor growth inhibition) ([2]; 30 mg/kg): 115.52%
TRTV/CRTV (relative tumor volume) ([2]; 30 mg/kg): 3.92%
Tumor Size ([2]; 30 mg/kg): 45 ± 19 mm^3
IC50 [3]: 6570 nM
IC50 (H1975 cells; [10]): 4.77 nM
IC50 (H1975 cells; [8]): 3.45 nM
IC50 (PC-9 cells; [11]): 4.18 nM
IC50 (PC-9 cells; read-out: PC9 IC50 (nM) SM): 3.22 nM
IC50 [4]: 77.1 nM and 166 nM
IC50 [5]: 4.29 nM and 2.54 nM
IC50 (A431 cells; [12]): 2120 nM
IC50 (A431 cells; [9]): 3680 nM
F (Mouse in vivo PK study [6]; 2 mg/kg IV, 10 mg/kg PO): 20.8%
clearance (Mouse in vivo PK study [6]; mouse, plasma, 2 mg/kg IV): 35.5 mL/min/kg
half-life (Mouse in vivo PK study [6]; mouse, plasma, 2 mg/kg IV, read-out: T1/2 (IV) (converted)): 1.5 h
AUC (Mouse in vivo PK study [6]; mouse, plasma, 10 mg/kg PO): 976 ng·h/mL
Cmax (Mouse in vivo PK study [6]; mouse, plasma, 10 mg/kg PO): 119 ng/mL
half-life (Mouse in vivo PK study [6]; [13]): 2.57 h
AUC (Mouse in vivo PK study [7]; mouse, plasma, 2 mg/kg IV): 937 ng·h/mL
IC50 (IGF-1R): 1120 nM

C=CC(=O)Nc1cc(Nc2nccc(-c3cc(C#N)cc4c3ccn4C)n2)c(OC)cc1N(C)CCN(C)C [Example 4, N-(5-((4-(6-Cyano-1-methyl-1H-indol-4-yl)pyrimidin-2-yl)amino)-2-((2-(dimethylamino)ethyl)(methyl)amino)-4-methoxyphenyl)acrylamide]
IC50 [1]: 10.9 nM
IC50 (INSR): 965 nM
IC50 [3]: 2230 nM
IC50 (H1975 cells; [10]): 1.03 nM
IC50 (PC-9 cells; [11]): 1.91 nM
IC50 [4]: 69.5 nM
IC50 [5]: 1.98 nM
IC50 (A431 cells; [12]): 1460 nM
AUC (Mouse in vivo PK study [6]; mouse, plasma, 10 mg/kg PO): 225 ng·h/mL
Cmax (Mouse in vivo PK study [6]; mouse, plasma, 10 mg/kg PO): 80.2 ng/mL
half-life (Mouse in vivo PK study [6]; [13]): 7.3 h
F (Mouse in vivo PK study [7]; 1 mg/kg IV, 10 mg/kg PO): 15%
AUC (Mouse in vivo PK study [7]; mouse, plasma, 1 mg/kg IV): 96 ng·h/mL
clearance (Mouse in vivo PK study [7]; mouse, plasma, 1 mg/kg IV): 183 mL/min/kg
half-life (Mouse in vivo PK study [7]; mouse, plasma, 1 mg/kg IV, read-out: T1/2 (IV) (converted)): 0.576 h
IC50 (IGF-1R): 831 nM

C=CC(=O)Nc1cc(Nc2nccc(-n3nc(N(C)C)c4ccsc43)n2)c(OC)cc1N(C)CCN(C)C [Example 5, N-(5-((4-(3-(Dimethylamino)-1H-thieno[2,3-c]pyrazol-1-yl)pyrimidin-2-yl)amino)-2-((2-(dimethylamino)ethyl)(methyl)amino)-4-methoxyphenyl) acrylamide]
IC50 [1]: 17.1 nM
IC50 (INSR): 2140 nM
IC50 [3]: 3490 nM
IC50 (H1975 cells; [10]): 5.86 nM
IC50 (H1975 cells; [8]): 3.58 nM
IC50 (PC-9 cells; [11]): 4.86 nM
IC50 (PC-9 cells; read-out: PC9 IC50 (nM) SM): 2.9 nM
IC50 [4]: 148 nM
IC50 [5]: 6.46 nM
IC50 (A431 cells; [12]): 1300 nM
IC50 (A431 cells; [9]): 2210 nM
IC50 (IGF-1R): 1590 nM

C=CC(=O)Nc1cc(Nc2nccc(-c3cc(C#N)c4ccn(C)c4c3)n2)c(OC)cc1N(C)CCN(C)C [Example 7, N-(5-((4-(4-Cyano-1-methyl-1H-indol-6-yl)pyrimidin-2-yl)amino)-2-((2-(dimethylamino)ethyl)(methyl)amino)-4-methoxyphenyl)acrylamide]
IC50 [1]: 33 nM
IC50 (INSR): 621 nM
IC50 [3]: 1090 nM
IC50 (H1975 cells; [10]): 4.76 nM
IC50 (PC-9 cells; [11]): 7.38 nM
IC50 [4]: 302 nM
IC50 [5]: 8.26 nM
IC50 (A431 cells; [12]): 2170 nM
IC50 (IGF-1R): 390 nM

C=CC(=O)Nc1cc(Nc2nccc(-n3nc(N(C)C)c4ccccc43)n2)c(OC(F)F)cc1N(C)CCN(C)C [Example 18, N-(4-(Difluoromethoxy)-5-((4-(3-(dimethylamino)-1H-indazol-1-yl)pyrimidin-2-yl)amino)-2-((2-(dimethylamino)ethyl)(methyl)amino)phenyl) acrylamide]
IC50 [1]: 5.87 nM
IC50 (INSR): 968 nM
IC50 [3]: 1680 nM
IC50 (H1975 cells; [10]): 2.66 nM
IC50 (PC-9 cells; [11]): 1.79 nM
IC50 [4]: 49.1 nM
IC50 [5]: 3.94 nM
IC50 (A431 cells; [12]): 1240 nM
IC50 (IGF-1R): 1160 nM

C=CC(=O)Nc1cc(Nc2nccc(-n3nc(N(C)C)c4ncccc43)n2)c(OC(F)F)cc1N(C)CCN(C)C [Example 19]
IC50 [1]: 14.7 nM
IC50 (INSR): 1750 nM
IC50 [3]: 1100 nM
IC50 (H1975 cells; [10]): 2.82 nM
IC50 (PC-9 cells; [11]): 3.78 nM
IC50 [4]: 92.8 nM
IC50 [5]: 5.35 nM
IC50 (A431 cells; [12]): 953 nM
IC50 (IGF-1R): 1680 nM

C=CC(=O)Nc1cc(Nc2nccc(-n3nc(N(C)C)c4ncccc43)n2)c(OCC(F)F)cc1N(C)CCN(C)C [Example 21, N-(4-(2,2-Difluoroethoxy)-5-((4-(3-(dimethylamino)-1H-pyrazolo[4,3-b]pyridin-1-yl)pyrimidin-2-yl)amino)-2-(N-(2-(dimethylamino)ethyl)-N-methylamino)phenyl)acrylamide]
IC50 [1]: 23.8 nM
IC50 (INSR): 2730 nM
IC50 [3]: 3230 nM
IC50 (H1975 cells; [10]): 6.84 nM
IC50 (PC-9 cells; [11]): 7.21 nM
IC50 [4]: 192 nM
IC50 [5]: 12.2 nM
IC50 (A431 cells; [12]): 1710 nM
IC50 (IGF-1R): 1510 nM

C=CC(=O)Nc1cc(Nc2nccc(-n3nc(NCC)c4ncccc43)n2)c(OCC(F)F)cc1N(C)CCN(C)C [Example 22, N-(4-(2,2-Difluoroethoxy)-2-((2-(dimethylamino)ethyl)(methyl)amino)-5-((4-(3-(ethylamino)-1H-pyrazolo[4,3-b]pyridin-1-yl)pyrimidin-2-yl)amino)phenyl)acrylamide]
IC50 [1]: 5.79 nM
IC50 (INSR): 2530 nM
IC50 (H1975 cells; [10]): 3.57 nM
IC50 (PC-9 cells; [11]): 1.79 nM
IC50 [4]: 35 nM
IC50 [5]: 4.54 nM
IC50 (A431 cells; [12]): 675 nM
IC50 (IGF-1R): 5650 nM
